Here are results for 33 compounds from ChEMBL document CHEMBL1152034, “Solid phase synthesis of phosphinic acid endothelin converting enzyme inhibitors” (Bioorg Med Chem Lett, 1996).

Where only a bound is given, the exact number is not on record here.

Assay [1] addresses T1, Endothelin-converting enzyme 1 (Homo sapiens, UniProt P42892).
T1 sequence (P42892 whole entry): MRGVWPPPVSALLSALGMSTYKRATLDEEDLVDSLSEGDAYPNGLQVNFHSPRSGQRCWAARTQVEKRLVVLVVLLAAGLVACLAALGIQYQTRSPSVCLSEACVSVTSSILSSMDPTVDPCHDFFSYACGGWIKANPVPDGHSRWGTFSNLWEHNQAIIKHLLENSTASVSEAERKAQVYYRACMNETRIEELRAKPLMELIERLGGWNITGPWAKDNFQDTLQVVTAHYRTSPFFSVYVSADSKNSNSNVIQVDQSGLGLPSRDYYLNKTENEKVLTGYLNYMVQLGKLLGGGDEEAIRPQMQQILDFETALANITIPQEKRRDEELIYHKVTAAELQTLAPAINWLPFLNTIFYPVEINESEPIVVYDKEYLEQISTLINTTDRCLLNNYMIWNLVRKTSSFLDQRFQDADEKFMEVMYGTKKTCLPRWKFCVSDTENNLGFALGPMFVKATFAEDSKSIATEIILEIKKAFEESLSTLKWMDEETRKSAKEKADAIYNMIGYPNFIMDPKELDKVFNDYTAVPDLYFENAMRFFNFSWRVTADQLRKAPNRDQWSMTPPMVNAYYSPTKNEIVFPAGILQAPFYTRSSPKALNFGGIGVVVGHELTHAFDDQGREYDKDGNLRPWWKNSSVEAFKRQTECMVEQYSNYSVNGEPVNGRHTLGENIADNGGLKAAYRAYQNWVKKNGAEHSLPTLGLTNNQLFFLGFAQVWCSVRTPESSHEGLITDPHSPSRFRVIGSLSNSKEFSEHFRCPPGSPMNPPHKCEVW
In words: Inhibition of endothelin-converting enzyme in human umbilical vein endothelial cells. The assay is classed as cell-based, Endothelial cell.

The target in a further assay is Neprilysin (Homo sapiens, UniProt P08473). In words: Inhibition of neutral endopeptidase in human umbilical vein endothelial cells. The format is cell-based, Endothelial cell.
Neprilysin, sequence (P08473 whole entry): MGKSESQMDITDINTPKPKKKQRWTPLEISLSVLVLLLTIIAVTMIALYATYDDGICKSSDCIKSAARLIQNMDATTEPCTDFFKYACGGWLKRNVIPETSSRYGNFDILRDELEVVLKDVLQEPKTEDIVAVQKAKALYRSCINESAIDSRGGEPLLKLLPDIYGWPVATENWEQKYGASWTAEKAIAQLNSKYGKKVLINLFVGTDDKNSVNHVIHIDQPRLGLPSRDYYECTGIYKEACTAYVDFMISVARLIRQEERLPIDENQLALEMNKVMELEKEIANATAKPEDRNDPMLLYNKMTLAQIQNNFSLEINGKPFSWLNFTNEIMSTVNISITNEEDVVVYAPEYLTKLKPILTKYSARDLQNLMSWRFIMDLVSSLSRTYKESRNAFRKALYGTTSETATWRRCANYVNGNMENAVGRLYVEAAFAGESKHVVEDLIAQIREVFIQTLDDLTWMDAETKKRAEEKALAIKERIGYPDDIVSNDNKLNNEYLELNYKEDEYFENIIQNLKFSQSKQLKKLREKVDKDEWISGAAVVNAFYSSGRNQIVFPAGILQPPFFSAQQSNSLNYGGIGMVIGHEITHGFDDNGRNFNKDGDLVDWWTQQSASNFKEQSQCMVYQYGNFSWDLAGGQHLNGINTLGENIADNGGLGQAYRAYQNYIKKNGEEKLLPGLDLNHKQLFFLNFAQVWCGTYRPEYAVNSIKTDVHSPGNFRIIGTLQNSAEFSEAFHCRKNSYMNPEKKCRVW

What is called IC50 is the midpoint of a concentration-inhibition curve. As for `O=C(N[C@@H](Cc1ccccc1)P(=O)(O)CC(Cc1ccccc1)C(=O)N[C@H](Cc1ccccc1)C(=O)O)OCc1ccccc1` (stereo partly drawn), the IC50 was over 100 µM in assay [1] and over 60 µM against Neprilysin.
On the same counts, the results for `O=C(O)CNC(=O)C(Cc1ccccc1)CP(=O)(O)[C@H](Cc1ccccc1)NC(=O)OCc1ccccc1` (stereo partly drawn) are 80 µM and 0.9 µM.
Compound `O=C(O)[C@H](Cc1c[nH]c2ccccc12)NC(=O)[C@H](Cc1ccccc1)NP(=O)(O)CCCCc1ccccc1` came in with an IC50 in assay [1] of 0.4 µM.
Same read-out and setting: with `CC(C)[C@H](NC(=O)C(Cc1ccccc1)CP(=O)(O)[C@H](Cc1ccccc1)NC(=O)OCc1ccccc1)C(N)=O` (stereo partly drawn) the figure was 20 µM.
In the case of `N=C(N)NCCCC(NC(=O)C(Cc1ccccc1)CP(=O)(O)[C@H](Cc1ccccc1)NC(=O)OCc1ccccc1)C(=O)O` (mixture of isomers), the IC50 came to 4.3 µM in assay [1] and 0.8 µM on Neprilysin.
`CCC(C)C(NC(=O)C(Cc1ccccc1)CP(=O)(O)[C@H](Cc1ccccc1)NC(=O)OCc1ccccc1)C(=O)O` (mixture of isomers): half-maximal inhibition in assay [1] (IC50) required 4 µM.
In turn, `CC(C)[C@@H](NC(=O)C(Cc1ccccc1)CP(=O)(O)[C@H](Cc1ccccc1)NC(=O)OCc1ccccc1)C(=O)O` (mixture of isomers) yielded an IC50 in assay [1] of 60 µM.
Same read-out and setting: with `O=C(O)CCC(NC(=O)C(Cc1ccccc1)CP(=O)(O)[C@H](Cc1ccccc1)NC(=O)OCc1ccccc1)C(=O)O` (mixture of isomers) the figure was 25 µM.
Take `O=C(O)CCNC(=O)C(Cc1ccccc1)CP(=O)(O)[C@H](Cc1ccccc1)NC(=O)OCc1ccccc1` (mixture of isomers): the IC50 amounted to 50 µM in assay [1] and 2.3 µM against Neprilysin.
The like results for `O=C(N[C@@H](Cc1ccccc1)P(=O)(O)CC(Cc1ccccc1)C(=O)NC(Cc1c[nH]cn1)C(=O)O)OCc1ccccc1` (mixture of isomers) were, in that order, 20 µM and 10 µM.
In turn, `O=C(O)CC(NC(=O)C(Cc1ccccc1)CP(=O)(O)[C@H](Cc1ccccc1)NC(=O)OCc1ccccc1)C(=O)O` (mixture of isomers) showed an IC50 in assay [1] of 30 µM.
`NCCCCC(NC(=O)C(Cc1ccccc1)CP(=O)(O)[C@H](Cc1ccccc1)NC(=O)OCc1ccccc1)C(=O)O` (mixture of isomers): the results for the IC50 (in assay [1]; against Neprilysin) were 30 µM and over 100 µM, respectively.
On the same counts, the results for `CC(NC(=O)C(Cc1ccccc1)CP(=O)(O)[C@H](Cc1ccccc1)NC(=O)OCc1ccccc1)C(=O)O` (mixture of isomers) are 8 µM and 0.3 µM.
`CC(C)C(NC(=O)C(Cc1ccccc1)CP(=O)(O)[C@H](Cc1ccccc1)NC(=O)OCc1ccccc1)C(=O)O` (mixture of isomers): the concentration for half-maximal inhibition (IC50) in assay [1] came out at 1.7 µM.
Regarding `NC(=O)CC(NC(=O)C(Cc1ccccc1)CP(=O)(O)[C@H](Cc1ccccc1)NC(=O)OCc1ccccc1)C(=O)O` (mixture of isomers), the IC50 was 20 µM in assay [1] and 10 µM against Neprilysin.
Turning to `NC(=O)CCC(NC(=O)C(Cc1ccccc1)CP(=O)(O)[C@H](Cc1ccccc1)NC(=O)OCc1ccccc1)C(=O)O` (mixture of isomers), the half-inhibitory concentration (IC50) in assay [1] worked out at 6 µM; against Neprilysin, 15 µM.
In the case of `O=C(N[C@@H](Cc1ccccc1)P(=O)(O)CC(Cc1ccccc1)C(=O)NC(Cc1ccc(O)cc1)C(=O)O)OCc1ccccc1` (mixture of isomers), the concentration for half-maximal inhibition (IC50) was found to be 12 µM in assay [1] and 2.3 µM on Neprilysin.
On the same counts, the results for `O=C(N[C@@H](Cc1ccccc1)P(=O)(O)CC(Cc1ccccc1)C(=O)NC(Cc1ccccc1)C(=O)O)OCc1ccccc1` (mixture of isomers) are 10 µM and 0.8 µM.
The like results for `O=C(N[C@@H](Cc1ccccc1)P(=O)(O)CC(Cc1ccccc1)C(=O)NC(Cc1c[nH]c2ccccc12)C(=O)O)OCc1ccccc1` (mixture of isomers) were, in that order, 1.1 µM and 1.4 µM.
In turn, `O=C(O)CC[C@@H](NC(=O)C(Cc1ccccc1)CP(=O)(O)[C@H](Cc1ccccc1)NC(=O)OCc1ccccc1)C(=O)O` (mixture of isomers) displayed an IC50 in assay [1] of over 100 µM.
On to `N=C(N)NCCC[C@@H](NC(=O)C(Cc1ccccc1)CP(=O)(O)[C@H](Cc1ccccc1)NC(=O)OCc1ccccc1)C(=O)O` (mixture of isomers), for which the IC50 was over 100 µM in assay [1] and over 60 µM on Neprilysin.
`CCCCC(NC(=O)C(Cc1ccccc1)CP(=O)(O)[C@H](Cc1ccccc1)NC(=O)OCc1ccccc1)C(=O)O` (mixture of isomers) returned a 50% inhibitory concentration (IC50) in assay [1] of 12 µM.
With `CC(O)C(NC(=O)C(Cc1ccccc1)CP(=O)(O)[C@H](Cc1ccccc1)NC(=O)OCc1ccccc1)C(=O)O` (mixture of isomers), the half-inhibitory concentration (IC50) worked out at 5 µM in assay [1] and 10 µM at Neprilysin.
Take `CC(C)CC(NC(=O)C(Cc1ccccc1)CP(=O)(O)[C@H](Cc1ccccc1)NC(=O)OCc1ccccc1)C(=O)O` (mixture of isomers; form 1): the half-maximal inhibitory concentration (IC50) in assay [1] came to 23 µM.
`CC(C)CC(NC(=O)C(Cc1ccccc1)CP(=O)(O)[C@H](Cc1ccccc1)NC(=O)OCc1ccccc1)C(=O)O` (mixture of isomers; form 2) had an IC50 in assay [1] of 20 µM. This IC50 and that of the compound before are within 1.5-fold of each other.
In the case of `C[C@H](O)[C@@H](NC(=O)C(Cc1ccccc1)CP(=O)(O)[C@H](Cc1ccccc1)NC(=O)OCc1ccccc1)C(=O)O` (single isomer, unassigned), the IC50 is over 100 µM in assay [1] (endothelial cell) and 50 µM at Neprilysin.
Consider `O=C(N[C@@H](Cc1ccccc1)P(=O)(O)CC(Cc1ccccc1)C(=O)NC(Cc1ccc(O)cc1)C(=O)O)OCc1ccccc1` (single isomer, unassigned), for which the IC50 turned out to be 7 µM in assay [1] and 1 µM against Neprilysin.
`C[C@H](O)[C@@H](NC(=O)C(Cc1ccccc1)CP(=O)(O)[C@H](Cc1ccccc1)NC(=O)OCc1ccccc1)C(=O)O` (stereo in doubt): the half-maximal inhibitory concentration (IC50) (in assay [1]; on Neprilysin) was over 100 µM each time.
The compound `CC(C)[C@@H](NC(=O)C(Cc1ccccc1)CP(=O)(O)[C@H](Cc1ccccc1)NC(=O)OCc1ccccc1)C(=O)O` (stereo in doubt) had an IC50 in assay [1] of over 100 µM.
Turning to `NCCCCC(NC(=O)C(Cc1ccccc1)CP(=O)(O)[C@H](Cc1ccccc1)NC(=O)OCc1ccccc1)C(=O)O` (stereo in doubt), the IC50 in assay [1] is 60 µM; on Neprilysin (endothelial cell), over 100 µM.
As to `CC(C)C(NC(=O)C(Cc1ccccc1)CP(=O)(O)[C@H](Cc1ccccc1)NC(=O)OCc1ccccc1)C(=O)O` (stereo in doubt), 80 µM corresponded to half-maximal inhibition in assay [1] (IC50).
`NC(=O)CCC(NC(=O)C(Cc1ccccc1)CP(=O)(O)[C@H](Cc1ccccc1)NC(=O)OCc1ccccc1)C(=O)O` (stereo in doubt): the IC50 (in assay [1]; on Neprilysin) was over 100 µM each time.
On to `O=C(N[C@@H](Cc1ccccc1)P(=O)(O)CC(Cc1ccccc1)C(=O)NC(Cc1c[nH]c2ccccc12)C(=O)O)OCc1ccccc1` (stereo in doubt), for which the IC50 in assay [1] is 5.8 µM; against Neprilysin, 10 µM.
